Measurements taken from patent publication US6586606B2, “Process for the preparation of 3-aryl-benzofuran-2-ones” (Ciba Specialty Chemicals Corporation, priority 2000, dated 2003).

How the values were obtained:
[1] = Stabilisation of polyethylene in permanent contact with water (extraction test, oxidation induction time); conditions: 0.05% compound (302) with 0.10% Irganox 1010, 0.05% Irgafos, 0.10% calcium stearate in PE-HD; deionised water, 50 days at 80° C.
Description: Stabilisation of polyethylene which is in permanent contact with water.
0.10% by weight of calcium stearate and a stabilizer mixture comprising 0.10% by weight of Irganox®1010 (pentaerythritol tetrakis[3-(3,5-di-tert-butyl-4-hydroxyphenyl)propionate]), 0.05% by weight of Irgafos®68 (tris(2,4-di-tert-butylphenyl)phosphite) and 0.05% by weight of compound (302) (Table 3) is added dry to a polyethylene polymer (Hostalene® CRP 100; PE-HD) taken direct from a reactor and are incorporated therein in a Pappenmaier mixer (type 20) within 2 minutes.
In an extruder, of Schwabenthan, the stabilized polyethylene is homogenised and processed to granulate. For the extraction tests in water, 200 mm by 150 mm by 2 mm test plates are pressed from the granulate of the individual formulations using a table press. To ease the demoulding of the test plates, the pressing process is carried out between two aluminium foils. […]
The test plates are subjected to the above test conditions for 50 days at 80° C. Upon termination of the extraction test, the residual stabilizer content and the oxidation induction time of the test plates are determined.
The residual content of sterically hindered phenol, Irganox®1010, is determined using an internal standard in an HPLC appliance of the Spectra Physics SP 8800 type, equipped with autosampler and UV/VIS detector of the Spectra 200 type. […]

Row | melting point | stability of polyolefins in permanent contact with extracting media [1] | SMILES
1 | 174 to 178 °C |  | CC(C)(C)c1cc(C(C)(C)C)c2oc(N)c(-c3ccccc3)c2c1 [Compound (301), 2-amino-3-phenyl-5,7-di-tert-butyl-benzofurane]
2 | 172 to 174 °C |  | COc1ccc(-c2c(N)oc3c(C(C)(C)C)cc(C(C)(C)C)cc23)cc1OC [(303), 2-amino-5,7-di-tert-butyl-3-(3,4-dimethoxyphenyl)-benzofurane]
3 | 128 to 130 °C | improved | Cc1ccc(-c2c(N)oc3c(C(C)(C)C)cc(C(C)(C)C)cc23)cc1C [Compound (302), 2-amino-5,7-di-tert-butyl-3-(3,4-dimethylphenyl)-benzofurane]
4 | 116 to 119 °C |  | CC(C)(C)c1cc2c(c(C(C)(C)C)c1)OC(=O)C2c1ccccc1 (centres unmarked) [(101), 5,7-di-tert-butyl-3-phenyl-3H-benzofuran-2-one]
